In one data set the target is Cholinesterase (Homo sapiens, UniProt P06276).
Data set [1] concerns the target T1, Acetylcholinesterase (Homo sapiens, UniProt P22303). Briefly: Binding affinity for Acetylcholinesterase.
In data set [2] the target is T1, Acetylcholinesterase. Kind of data set: Inhibitory concentration against Acetylcholinesterase activity.
Substrate in data set [3]: COc1ccc(-c2cc3c(c(=O)o2)C[C@@]2(O)[C@@]4(C)CCC(=O)OC(C)(C)[C@@]4(O)CC[C@@]2(C)O3)cc1
Briefly: Michaelis-Menten constant for affinity against Acetylcholinesterase.

Some results are limits rather than exact numbers.

Chain of Cholinesterase (P06276 whole entry): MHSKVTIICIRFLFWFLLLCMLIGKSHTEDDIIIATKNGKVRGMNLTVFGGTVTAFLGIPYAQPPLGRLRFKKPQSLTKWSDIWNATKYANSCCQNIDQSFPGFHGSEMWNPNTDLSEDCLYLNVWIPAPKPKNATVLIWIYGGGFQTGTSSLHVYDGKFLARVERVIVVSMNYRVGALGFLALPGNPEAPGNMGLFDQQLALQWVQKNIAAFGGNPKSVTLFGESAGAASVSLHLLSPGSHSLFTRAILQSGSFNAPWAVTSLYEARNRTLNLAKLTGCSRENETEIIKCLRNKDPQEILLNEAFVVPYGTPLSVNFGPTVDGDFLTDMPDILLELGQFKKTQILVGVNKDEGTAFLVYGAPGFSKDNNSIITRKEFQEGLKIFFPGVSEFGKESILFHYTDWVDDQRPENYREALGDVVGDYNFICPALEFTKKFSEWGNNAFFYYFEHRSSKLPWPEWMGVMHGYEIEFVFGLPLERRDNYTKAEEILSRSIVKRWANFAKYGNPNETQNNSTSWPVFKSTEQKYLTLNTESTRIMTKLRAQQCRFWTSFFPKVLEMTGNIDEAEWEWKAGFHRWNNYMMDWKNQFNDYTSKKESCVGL

The IC50 is the concentration that gives 50% inhibition. The Ki is a measure of affinity in units of concentration, obtained from inhibition or displacement. For the molecule `COc1ccc(-c2cc3c(c(=O)o2)C[C@@]2(O)[C@@]4(C)CCC(=O)OC(C)(C)[C@@]4(O)CC[C@@]2(C)O3)cc1`, at Cholinesterase, the 50% inhibitory concentration (IC50) was above 500000 nM. Also, at Acetylcholinesterase [1], the Ki came to 2300 nM.

Consider `COC1=CC(=O)[C@]2(C)[C@]3(O)Cc4c(cc(-c5cc(OC)c(OC)c(OC)c5)oc4=O)O[C@]3(C)CC[C@]2(O)C1(C)C`, for which the concentration for half-maximal inhibition (IC50) against Cholinesterase was above 200000 nM; against Acetylcholinesterase [2], 420 nM.

As to `COc1ccc(-c2cc3c(c(=O)o2)C[C@@]2(O)[C@@]4(C)CCC(=O)C(C)(C)[C@@]4(O)CC[C@@]2(C)O3)cc1`, the half-maximal inhibitory concentration (IC50) on Cholinesterase is above 200000 nM; on Acetylcholinesterase [2] it was 60 nM.

Turning to `COc1ccc(-c2cc3c(c(=O)o2)C[C@@]2(O)[C@@]4(C)C=CC(=O)C(C)(C)[C@@]4(O)CC[C@@]2(C)O3)cc1`, the IC50 was above 200000 nM against Cholinesterase and 90 nM against Acetylcholinesterase [2].

Consider `COc1ccc(-c2cc3c(c(=O)o2)C[C@@]2(O)[C@@]4(C)C(=O)[C@@]5(OC)C(=O)O[C@]4(CC[C@@]2(C)O3)C5(C)C)cc1` [TERREULACTONE A], for which the values for the IC50 at Cholinesterase and against Acetylcholinesterase [2] were above 200000 nM and 230 nM, respectively.

B1: Acetylcholinesterase (Homo sapiens), P22303 (protein)
chain: MRPPQCLLHTPSLASPLLLLLLWLLGGGVGAEGREDAELLVTVRGGRLRGIRLKTPGGPVSAFLGIPFAEPPMGPRRFLPPEPKQPWSGVVDATTFQSVCYQYVDTLYPGFEGTEMWNPNRELSEDCLYLNVWTPYPRPTSPTPVLVWIYGGGFYSGASSLDVYDGRFLVQAERTVLVSMNYRVGAFGFLALPGSREAPGNVGLLDQRLALQWVQENVAAFGGDPTSVTLFGESAGAASVGMHLLSPPSRGLFHRAVLQSGAPNGPWATVGMGEARRRATQLAHLVGCPPGGTGGNDTELVACLRTRPAQVLVNHEWHVLPQESVFRFSFVPVVDGDFLSDTPEALINAGDFHGLQVLVGVVKDEGSYFLVYGAPGFSKDNESLISRAEFLAGVRVGVPQVSDLAAEAVVLHYTDWLHPEDPARLREALSDVVGDHNVVCPVAQLAGRLAAQGARVYAYVFEHRASTLSWPLWMGVPHGYEIEFIFGIPLDPSRNYTAEEKIFAQRLMRYWANFARTGDPNEPRDPKAPQWPPYTAGAQQYVSLDLRPLEVRRGLRAQACAFWNRFLPKLLSATDTLDEAERQWKAEFHRWSSYMVHWKNQFDHYSKQDRCSDL
One may read the Km as the substrate concentration at which the rate is half of its maximum. As to B1, the Km in data set [3] is 20 µM.

Source of the values: ChEMBL document CHEMBL1141884 (Bioorg Med Chem Lett, 2005).
